Measured values as given in ChEMBL document CHEMBL4145521, “Regioselective synthesis of 3,4-diaryl-5-unsubstituted isoxazoles, analogues of natural cytostatic combretastatin A4” (Eur J Med Chem, 2018).

Tests used:
Format in all cases: functional
[1] = test system: SNB-75; test: Cytotoxicity against human SNB75 cells assessed as cell growth at 10 uM incubated for 48 hrs by sulforhodamine B assay relative to control; settings: SNB-75, 48 h, read-out: Activity
[2] = test system: SK-OV-3; test: Cytotoxicity against human SKOV3 cells incubated for 48 hrs by sulforhodamine B assay; settings: SK-OV-3, 48 h
[3] = test system: HL-60(TB); test: Cytotoxicity against human HL-60(TB) cells assessed as cell growth at 0.1 uM incubated for 48 hrs by sulforhodamine B assay relative to control; settings: HL-60, 48 h, read-out: Activity
[4] = test system: SF-295; test: Cytotoxicity against human SF295 cells assessed as cell growth at 0.01 uM incubated for 48 hrs by sulforhodamine B assay relative to control; settings: SF-295, 48 h, read-out: Activity
[5] = test system: NCI-H226; test: Cytotoxicity against human NCI-H226 cells incubated for 48 hrs by sulforhodamine B assay; settings: NCI-H226, 48 h
[6] = test system: SF-268; test: Cytotoxicity against human SF268 cells assessed as cell growth at 10 uM incubated for 48 hrs by sulforhodamine B assay relative to control; settings: SF-268, 48 h, read-out: Activity
[7] = test system: T47D; test: Cytotoxicity against human T47D cells incubated for 48 hrs by sulforhodamine B assay
[8] = test system: DU-145; test: Cytotoxicity against human DU145 cells assessed as cell growth at 10 uM incubated for 48 hrs by sulforhodamine B assay relative to control; settings: DU-145, 48 h, read-out: Activity
[9] = test system: SK-MEL-28; test: Cytotoxicity against human SK-MEL-28 cells assessed as cell growth at 1 uM incubated for 48 hrs by sulforhodamine B assay relative to control; settings: SK-MEL-28, 48 h, read-out: Activity
[10] = test system: NCI-H460; test: Cytotoxicity against human NCI-H460 cells assessed as cell growth at 100 uM incubated for 48 hrs by sulforhodamine B assay relative to control; settings: NCI-H460, 48 h, read-out: Activity
[11] = test system: U-251; test: Cytotoxicity against human U251 cells assessed as cell growth at 0.01 uM incubated for 48 hrs by sulforhodamine B assay relative to control; settings: U-251, 48 h, read-out: Activity
[12] = test system: CAKI-1; test: Cytotoxicity against human Caki1 cells assessed as cell growth at 100 uM incubated for 48 hrs by sulforhodamine B assay relative to control; settings: CAKI-1, 48 h, read-out: Activity
[13] = test system: MCF7; test: Cytotoxicity against human MCF7 cells assessed as cell growth at 0.01 uM incubated for 48 hrs by sulforhodamine B assay relative to control; settings: MCF7, 48 h, read-out: Activity
[14] = test system: BT-549; test: Cytotoxicity against human BT549 cells assessed as cell growth at 10 uM incubated for 48 hrs by sulforhodamine B assay relative to control; settings: BT-549, 48 h, read-out: Activity
[15] = test system: HOP-92; test: Cytotoxicity against human HOP92 cells assessed as cell growth at 100 uM incubated for 48 hrs by sulforhodamine B assay relative to control; settings: HOP-92, 48 h, read-out: Activity
[16] = test system: A498; test: Cytotoxicity against human A498 cells assessed as cell growth at 1 uM incubated for 48 hrs by sulforhodamine B assay relative to control; settings: A498, 48 h, read-out: Activity
[17] = test system: CAKI-1; test: Cytotoxicity against human Caki1 cells assessed as cell growth at 10 uM incubated for 48 hrs by sulforhodamine B assay relative to control; settings: CAKI-1, 48 h, read-out: Activity
[18] = test system: LOX IMVI; test: Cytotoxicity against human LOXIMVI cells assessed as cell growth at 0.01 uM incubated for 48 hrs by sulforhodamine B assay relative to control; settings: read-out: Activity
[19] = test system: KM12; test: Cytotoxicity against human KM12 cells assessed as cell growth at 0.01 uM incubated for 48 hrs by sulforhodamine B assay relative to control; settings: KM12, 48 h, read-out: Activity
[20] = test system: OVCAR-8; test: Cytotoxicity against human OVCAR8 cells assessed as cell growth at 0.01 uM incubated for 48 hrs by sulforhodamine B assay relative to control; settings: OVCAR-8, 48 h, read-out: Activity
[21] = test system: ACHN; test: Cytotoxicity against human ACHN cells assessed as cell growth at 100 uM incubated for 48 hrs by sulforhodamine B assay relative to control; settings: read-out: Activity
[22] = test system: SK-MEL-2; test: Cytotoxicity against human SK-MEL-2 cells assessed as cell growth at 100 uM incubated for 48 hrs by sulforhodamine B assay relative to control; settings: SK-MEL-2, 48 h, read-out: Activity
[23] = test system: NCI-H23; test: Cytotoxicity against human NCI-H23 cells assessed as cell growth at 0.01 uM incubated for 48 hrs by sulforhodamine B assay relative to control; settings: NCI-H23, 48 h, read-out: Activity
[24] = test system: M14; test: Cytotoxicity against human M14 cells assessed as cell growth at 0.01 uM incubated for 48 hrs by sulforhodamine B assay relative to control; settings: M14, 48 h, read-out: Activity
[25] = test system: CAKI-1; test: Cytotoxicity against human Caki1 cells incubated for 48 hrs by sulforhodamine B assay; settings: CAKI-1, 48 h
[26] = test system: SR; test: Cytotoxicity against human SR cells assessed as cell growth at 10 uM incubated for 48 hrs by sulforhodamine B assay relative to control; settings: read-out: Activity
[27] = test system: OVCAR-4; test: Cytotoxicity against human OVCAR4 cells incubated for 48 hrs by sulforhodamine B assay; settings: OVCAR-4, 48 h
[28] = test system: MDA-MB-468; test: Cytotoxicity against human MDA-MB-468 cells assessed as cell growth at 100 uM incubated for 48 hrs by sulforhodamine B assay relative to control; settings: MDA-MB-468, 48 h, read-out: Activity
[29] = test system: 786-0; test: Cytotoxicity against human 786-0 cells assessed as cell growth at 0.1 uM incubated for 48 hrs by sulforhodamine B assay relative to control; settings: 786-0, 48 h, read-out: Activity
[30] = test system: NCI-H460; test: Cytotoxicity against human NCI-H460 cells incubated for 48 hrs by sulforhodamine B assay; settings: NCI-H460, 48 h

Compound: COc1ccc(-c2nocc2-c2cc(OC)c(OC)c(OC)c2)cc1
- growth at 10 µM [1]: 19%
- GI50 ([2]; read-out: GI50): 0.296 µM
- LC50 ([2]; read-out: LC50): > 100 µM
- TGI ([2]; read-out: TGI): > 100 µM
- GI50 ([2]; read-out: pGI50 (converted)): 0.295 µM
- LC50 ([2]; read-out: pLC50 (converted)): > 100 µM
- TGI ([2]; read-out: pTGI): > 100 µM
- growth at 0.1 µM [3]: 25%
- growth at 0.01 µM [4]: 84%
- GI50 ([5]; read-out: GI50): 15.5 µM
- LC50 ([5]; read-out: LC50): > 100 µM
- TGI ([5]; read-out: TGI): 58.3 µM
- GI50 ([5]; read-out: pGI50 (converted)): 15.5 µM
- LC50 ([5]; read-out: pLC50 (converted)): > 100 µM
- TGI ([5]; read-out: pTGI (converted)): 58.9 µM
- growth at 10 µM [6]: 27%
- LC50 ([7]; read-out: LC50): > 100 µM
- TGI ([7]; read-out: TGI): 86.3 µM
- LC50 ([7]; read-out: pLC50 (converted)): > 100 µM
- TGI ([7]; read-out: pTGI (converted)): 87.1 µM
- growth at 10 µM [8]: 11%
- growth at 1 µM [9]: 58%
- growth at 100 µM [10]: -37%
- growth at 0.01 µM [11]: 99%
- growth at 100 µM [12]: 14%
- growth at 0.01 µM [13]: 86%
- growth at 10 µM [14]: 9%
- growth at 100 µM [15]: -21%
- growth at 1 µM [16]: -3%
- growth at 10 µM [17]: 36%
- growth at 0.01 µM [18]: 94%
- growth at 0.01 µM [19]: 92%
- growth at 0.01 µM [20]: 103%
- growth at 100 µM [21]: -13%
- growth at 100 µM [22]: -8%
- growth at 0.01 µM [23]: 94%
- growth at 0.01 µM [24]: 90%
- GI50 ([25]; read-out: GI50): 0.642 µM
- LC50 ([25]; read-out: LC50): > 100 µM
- TGI ([25]; read-out: TGI): > 100 µM
- GI50 ([25]; read-out: pGI50 (converted)): 0.646 µM
- LC50 ([25]; read-out: pLC50 (converted)): > 100 µM
- TGI ([25]; read-out: pTGI): > 100 µM
- growth at 10 µM [26]: 22%
- GI50 ([27]; read-out: GI50): 0.926 µM
- LC50 ([27]; read-out: LC50): > 100 µM
- TGI ([27]; read-out: TGI): > 100 µM
- GI50 ([27]; read-out: pGI50 (converted)): 0.933 µM
- LC50 ([27]; read-out: pLC50 (converted)): > 100 µM
- TGI ([27]; read-out: pTGI): > 100 µM
- growth at 100 µM [28]: -19%
- growth at 0.1 µM [29]: 54%
- GI50 ([30]; read-out: GI50): 0.0536 µM
- CC50 ([30]; read-out: LC50 (the source's name)): > 100 µM
- TGI ([30]; read-out: TGI): 12.7 µM
- GI50 ([30]; read-out: pGI50 (converted)): 0.0537 µM
- CC50 ([30]; read-out: pLC50 (the source's name) (converted)): > 100 µM
- TGI ([30]; read-out: pTGI (converted)): 12.6 µM
